# Source: patent US7601333B2, “Use of a tetrapeptide AcSDKP (SEQ ID No. 1) analog resistant to the angiotensin I converting enzyme for measuring glomerular filtration rate in a human or an animal and kit containing same” (Assistance Publique-Hopitaux de Paris, priority 2003, dated 2009)
# Where two headings read alike, the source gives them in different places. Residues, ends and D or L forms follow the SMILES beside them.
# Experiments:
# in vivo = conditions: male, Wistar, rat, iv
# human ACE [1] = target: human ACE (Homo sapiens, UniProt P12821); test: In vitro degradation in the presence of human ACE; format: in vitro ADME
# Sequence of human ACE (Homo sapiens, UniProt P12821) (P12821 30-1306): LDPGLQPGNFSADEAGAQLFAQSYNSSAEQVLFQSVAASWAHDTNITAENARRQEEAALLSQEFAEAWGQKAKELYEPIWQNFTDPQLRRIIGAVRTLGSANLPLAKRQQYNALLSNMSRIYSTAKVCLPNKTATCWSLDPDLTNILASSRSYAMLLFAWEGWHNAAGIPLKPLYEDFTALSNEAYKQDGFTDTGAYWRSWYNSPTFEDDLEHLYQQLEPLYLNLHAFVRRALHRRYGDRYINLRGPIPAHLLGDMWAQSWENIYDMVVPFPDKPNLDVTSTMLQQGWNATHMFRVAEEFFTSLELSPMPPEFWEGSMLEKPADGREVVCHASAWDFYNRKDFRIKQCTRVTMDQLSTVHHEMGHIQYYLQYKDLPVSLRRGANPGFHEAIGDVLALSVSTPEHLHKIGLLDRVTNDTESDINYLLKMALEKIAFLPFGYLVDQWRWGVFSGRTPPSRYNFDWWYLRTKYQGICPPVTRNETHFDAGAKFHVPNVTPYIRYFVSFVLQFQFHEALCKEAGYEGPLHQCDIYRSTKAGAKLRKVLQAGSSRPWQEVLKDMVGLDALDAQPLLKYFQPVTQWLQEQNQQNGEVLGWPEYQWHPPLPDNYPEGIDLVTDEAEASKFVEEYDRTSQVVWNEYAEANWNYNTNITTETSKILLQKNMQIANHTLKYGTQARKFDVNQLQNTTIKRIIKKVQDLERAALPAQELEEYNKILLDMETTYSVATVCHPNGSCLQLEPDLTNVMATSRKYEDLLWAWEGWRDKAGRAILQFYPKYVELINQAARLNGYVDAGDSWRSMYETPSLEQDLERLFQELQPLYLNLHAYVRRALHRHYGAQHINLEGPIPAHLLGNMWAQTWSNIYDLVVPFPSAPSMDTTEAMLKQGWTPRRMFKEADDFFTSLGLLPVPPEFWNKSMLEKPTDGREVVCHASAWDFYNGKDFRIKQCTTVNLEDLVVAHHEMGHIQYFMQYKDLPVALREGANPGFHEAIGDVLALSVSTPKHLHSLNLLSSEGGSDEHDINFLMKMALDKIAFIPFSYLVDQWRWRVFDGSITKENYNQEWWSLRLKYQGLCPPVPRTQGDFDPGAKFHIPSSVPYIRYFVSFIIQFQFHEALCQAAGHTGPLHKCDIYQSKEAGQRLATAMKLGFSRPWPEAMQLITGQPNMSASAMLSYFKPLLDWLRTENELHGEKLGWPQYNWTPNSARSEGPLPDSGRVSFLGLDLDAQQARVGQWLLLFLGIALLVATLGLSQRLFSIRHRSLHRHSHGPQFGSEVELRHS
# Protocol: (§1) The peptides (100 nM) were incubated with ground rat lung material (at 0.1 mg/ml) or human converting enzyme (5 mU final concentration) in the presence or absence of captopril (10 μM final concentration) in 0.1 M Tris/HCl buffer+0.3 mM NaCl, pH=7.5. A control comprising only the peptides in the presence of 0.1 M Tris/HCl buffer+0.3 mM NaCl, pH=7.5, was carried out.
# (§2) A methanol extraction was carried out in order to stop the reaction. At each time, the concentration of the nondegraded peptide was measured by enzyme immunoassay.
# (§3) The results were expressed as percentage of peptide assayed relative to the control for each sample time.
# human ACE [2] = test: In vitro degradation in the presence of human ACE; format: in vitro ADME; conditions: human converting enzyme (human ACE), peptide 100 nM, human converting enzyme 5 mU, pH 7.5, read-out: percentage of peptide assayed relative to the control; for remaining at 10 min, 100 nM: T10 min; for remaining at 0.5 h, 100 nM: T30 min; for remaining at 1 h, 100 nM: T60 min; for remaining at 2 h, 100 nM: T120 min; for remaining at 4 h, 100 nM: T240 min; for remaining at 24 h, 100 nM: T1440 min
# Protocol: as §1, §2, §3
# ACE (rat lung) = test system: T1, ACE (rat lung); test: In vitro degradation in the presence of rat lung ACE; format: in vitro ADME; conditions: ground rat lung material (rat lung ACE), peptide 100 nM, ground rat lung material 0.1 mg/ml, pH 7.5, read-out: percentage of peptide assayed relative to the control; for remaining at 1 h, 100 nM: T60 min; for remaining at 2 h, 100 nM: T120 min; for remaining at 4 h, 100 nM: T240 min; for remaining at 0.5 h, 100 nM: T30 min
# T1 construct: incubated with ground rat lung material (at 0.1 mg/ml); from tissue; host or cells: rat lung (ground material)
# Protocol: as §1, §2, §3
# rat lung ACE = target: T2, rat lung ACE (Rattus norvegicus, UniProt P47820); test: as above; format: in vitro ADME; conditions: for percentage of peptide assayed relative to the control: peptide 100 nM, ground rat lung material 0.1 mg/ml, pH 7.5
# T2 construct: incubated with ground rat lung material (at 0.1 mg/ml); from tissue; host or cells: rat lung (ground material)
# T2 sequence (P47820 36-1313): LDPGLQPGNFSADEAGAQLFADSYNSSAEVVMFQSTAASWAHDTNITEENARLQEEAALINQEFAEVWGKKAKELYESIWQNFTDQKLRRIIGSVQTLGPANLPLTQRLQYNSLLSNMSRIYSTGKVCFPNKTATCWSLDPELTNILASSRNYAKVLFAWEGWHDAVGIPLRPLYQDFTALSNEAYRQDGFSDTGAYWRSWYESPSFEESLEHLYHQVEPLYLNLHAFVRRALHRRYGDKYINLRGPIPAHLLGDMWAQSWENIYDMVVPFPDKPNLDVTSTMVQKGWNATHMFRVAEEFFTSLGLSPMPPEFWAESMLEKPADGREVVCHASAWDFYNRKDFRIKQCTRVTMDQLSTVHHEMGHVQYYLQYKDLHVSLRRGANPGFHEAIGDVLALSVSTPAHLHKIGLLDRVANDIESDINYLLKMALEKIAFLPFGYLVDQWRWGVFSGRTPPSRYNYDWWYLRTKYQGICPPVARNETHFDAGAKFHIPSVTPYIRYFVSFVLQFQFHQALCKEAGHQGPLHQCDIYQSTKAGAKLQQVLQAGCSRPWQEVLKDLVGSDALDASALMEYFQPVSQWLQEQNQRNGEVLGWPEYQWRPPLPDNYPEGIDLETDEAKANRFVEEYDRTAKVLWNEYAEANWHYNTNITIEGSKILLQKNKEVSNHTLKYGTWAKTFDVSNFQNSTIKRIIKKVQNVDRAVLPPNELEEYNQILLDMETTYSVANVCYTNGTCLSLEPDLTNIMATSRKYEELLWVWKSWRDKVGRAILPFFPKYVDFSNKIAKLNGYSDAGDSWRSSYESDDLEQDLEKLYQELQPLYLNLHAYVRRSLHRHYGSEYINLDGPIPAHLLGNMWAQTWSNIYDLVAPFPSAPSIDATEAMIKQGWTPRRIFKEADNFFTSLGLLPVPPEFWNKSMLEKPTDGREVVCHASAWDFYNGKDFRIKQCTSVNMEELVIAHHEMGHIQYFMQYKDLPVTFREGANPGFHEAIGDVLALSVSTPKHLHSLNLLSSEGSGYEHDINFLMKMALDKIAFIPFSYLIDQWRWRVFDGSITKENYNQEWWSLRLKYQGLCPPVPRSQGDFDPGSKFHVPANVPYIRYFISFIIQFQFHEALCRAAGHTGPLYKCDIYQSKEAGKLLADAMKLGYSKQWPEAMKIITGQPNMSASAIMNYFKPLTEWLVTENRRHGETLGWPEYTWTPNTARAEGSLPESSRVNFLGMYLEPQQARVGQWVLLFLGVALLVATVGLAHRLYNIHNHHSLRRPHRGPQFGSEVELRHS
# Protocol: as §1, §2, §3
# [3] = with captopril 10 μM, + captopril 10 μM
compound,measurement,setting,value
"CC(=O)N[C@@H](CO)C(=O)N[C@@H](CC(=O)O)C(=O)N[C@@H](CCCCN)C(=O)N1CCC[C@H]1C(=O)O [AcSDKP, N-acetyl-Ser-Asp-Lys-Pro] (Ac-SDKP-OH; C-terminus assumed)",Vd,in vivo; plasma,0.353 L/kg
same,level at time molar at 5 min,in vivo; plasma,5660 nM
same,level at time molar at 10 min,in vivo; plasma,4980 nM
same,level at time molar at 0.25 h,in vivo; plasma,4040 nM
same,level at time molar at 1 h,in vivo; plasma,1000 nM
same,level at time molar at 2 h,in vivo; plasma,218 nM
same,level at time molar at 3 h,in vivo; plasma,60 nM
same,level at time molar at 4 h,in vivo; plasma,22 nM
same,level at time molar at 5 h,in vivo; plasma,11 nM
same,level at time molar at 5 min,"in vivo; plasma, 1.2 mg/kg",1820 nM
same,level at time molar at 10 min,"in vivo; plasma, 1.2 mg/kg",514 nM
same,level at time molar at 0.25 h,"in vivo; plasma, 1.2 mg/kg",194 nM
same,level at time molar at 0.5 h,"in vivo; plasma, 1.2 mg/kg",38 nM
same,level at time molar at 1 h,"in vivo; plasma, 1.2 mg/kg",8.2 nM
same,level at time molar at 2 h,"in vivo; plasma, 1.2 mg/kg",2.2 nM
same,CL renal,"in vivo; urine and plasma, 1 mg/kg",11.2 mL/min/kg
same,dose excreted,"in vivo; urine, 1.2 mg/kg",10.1%
same,degradation by ACE of human origin,human ACE [1]; in vitro,degraded
same,"remaining at 10 min, 100 nM",human ACE [2]; [3],90%
same,"remaining at 0.5 h, 100 nM",human ACE [2]; [3],100%
same,"remaining at 1 h, 100 nM",human ACE [2]; [3],85%
same,"remaining at 2 h, 100 nM",human ACE [2]; [3],85%
same,"remaining at 4 h, 100 nM",human ACE [2]; [3],100%
same,"remaining at 10 min, 100 nM",human ACE [2]; without captopril,82%
same,"remaining at 0.5 h, 100 nM",human ACE [2]; without captopril,75%
same,"remaining at 1 h, 100 nM",human ACE [2]; without captopril,50%
same,"remaining at 2 h, 100 nM",human ACE [2]; without captopril,25%
same,"remaining at 4 h, 100 nM",human ACE [2]; without captopril,7%
same,"remaining at 1 h, 100 nM",ACE (rat lung); [3],111%
same,"remaining at 2 h, 100 nM",ACE (rat lung); [3],75%
same,"remaining at 4 h, 100 nM",ACE (rat lung); [3],89%
same,"remaining at 0.5 h, 100 nM",ACE (rat lung); without captopril,28%
same,"remaining at 1 h, 100 nM",ACE (rat lung); without captopril,9%
same,"remaining at 2 h, 100 nM",ACE (rat lung); without captopril,5%
same,"remaining at 4 h, 100 nM",ACE (rat lung); without captopril,5%
same,degradation by rat ACE,rat lung ACE; in vitro,degraded
same,percentage of peptide assayed relative to the control,"rat lung ACE; T30 min, + captopril 10 μM",129%
"CC(=O)N[C@@H](CO)C(=O)N[C@@H](CC(=O)O)C(=O)N[C@@H](CCCCN)C(=O)N1CCC[C@H]1C(N)=O [AcSDKP-NH2, N-acetyl-Ser-Asp-Lys-Pro-NH2] (Ac-SDKP-NH2)",AUC0-inf,in vivo; plasma,1490 ng·h/mL
same,Vd,in vivo; plasma,0.284 L/kg
same,clearance,in vivo; plasma,8.1 mL/min/kg
same,half-life,in vivo; plasma,23.1 min
same,level at 5 min,in vivo; plasma,3400 ng/mL
same,level at 10 min,in vivo; plasma,2680 ng/mL
same,level at 0.25 h,in vivo; plasma,1720 ng/mL
same,level at 0.5 h,in vivo; plasma,1010 ng/mL
same,level at 1 h,in vivo; plasma,450 ng/mL
same,level at 2 h,in vivo; plasma,82 ng/mL
same,level at 4 h,in vivo; plasma,3 ng/mL
same,AUC0-inf,"in vivo; plasma, 0.82 mg/kg",1230 ng·h/mL
same,Vd,"in vivo; plasma, 0.82 mg/kg",0.338 L/kg
same,half-life,"in vivo; plasma, 0.82 mg/kg",23.3 min
same,level at 5 min,"in vivo; plasma, 0.82 mg/kg",2830 ng/mL
same,level at 10 min,"in vivo; plasma, 0.82 mg/kg",2330 ng/mL
same,level at 3 h,"in vivo; plasma, 0.82 mg/kg",16 ng/mL
same,level at 4 h,"in vivo; plasma, 0.82 mg/kg",3 ng/mL
same,AUC0-inf,"in vivo; plasma, 1 mg/kg",1650 ng·h/mL
same,Vd,"in vivo; plasma, 1 mg/kg",0.266 L/kg
same,clearance,"in vivo; plasma, 1 mg/kg",8.1 mL/min/kg
same,degradation by ACE of human origin,human ACE [1]; in vitro,does not appear to be degraded
same,concentrations found,"human ACE [1]; in vitro, relative to control",100±25%
same,percentage of peptide assayed relative to the control,"human ACE [1]; peptide 100 nM, human converting enzyme 5 mU, pH 7.5, T30 min, + captopril 10 μM",162%
same,"remaining at 10 min, 100 nM",human ACE [2]; [3],90%
same,"remaining at 1 h, 100 nM",human ACE [2]; [3],78%
same,"remaining at 2 h, 100 nM",human ACE [2]; [3],95%
same,"remaining at 4 h, 100 nM",human ACE [2]; [3],104%
same,"remaining at 24 h, 100 nM",human ACE [2]; [3],117%
same,"remaining at 10 min, 100 nM",human ACE [2]; without captopril,79%
same,"remaining at 0.5 h, 100 nM",human ACE [2]; without captopril,100%
same,"remaining at 1 h, 100 nM",human ACE [2]; without captopril,116%
same,"remaining at 2 h, 100 nM",human ACE [2]; without captopril,116%
same,"remaining at 4 h, 100 nM",human ACE [2]; without captopril,107%
same,"remaining at 24 h, 100 nM",human ACE [2]; without captopril,86%
same,"remaining at 2 h, 100 nM",ACE (rat lung); [3],109%
same,"remaining at 0.5 h, 100 nM",ACE (rat lung); without captopril,100%
same,"remaining at 1 h, 100 nM",ACE (rat lung); without captopril,65%
same,"remaining at 2 h, 100 nM",ACE (rat lung); without captopril,95%
same,degradation by rat ACE,rat lung ACE; in vitro,does not appear to be degraded
same,concentrations found,"rat lung ACE; in vitro, relative to control",100±25%
same,percentage of peptide assayed relative to the control,"rat lung ACE; T30 min, + captopril 10 μM",125%
same,percentage of peptide assayed relative to the control,"rat lung ACE; T60 min, + captopril 10 μM",65%
same,percentage of peptide assayed relative to the control,"rat lung ACE; T240 min, + captopril 10 μM",136%
same,percentage of peptide assayed relative to the control,"rat lung ACE; T240 min, without captopril",126%
